Values quoted from earlier work, collected in patent US11577235B1, “Layered catalyst reactor systems and processes for hydrotreatment of hydrocarbon feedstocks” (Chevron U.S.A. Inc., priority 2021, dated 2023).

System: rats
Settings: single oral dose to rats

| Molecule | LD50 |
| --- | --- |
| thio-diglycolic acid | 500 mg/kg |
| O=CC(=O)O [glyoxylic] | 3000 mg/kg |
